As usually defined, the IC50 is the concentration at which inhibition is half-maximal. A higher IC50 goes with weaker potency in that assay.

The first test is described as follows: Ability to bind to the […] integrin expressed as inhibitory concentration against ADP-stimulated aggregation of human gel-filtered platelets.
As to `O=C(O)C[C@H](NC(=O)Cn1c(C2CC2)c(Cl)nc(NCc2ccc3c(n2)NCCC3)c1=O)c1cccnc1` [(S)-3-(2-{5-Chloro-6-cyclopropyl-2-oxo-3-[(5,6,7,8-tetrahydro-[1,8]naphthyridin-2-ylmethyl)-amino]-2H-pyrazin-1-yl}-acetylamino)-3-pyridin-3-yl-propionic acid], the IC50 was > 3000 nM.
Still for that read-out and setting: next, `O=C(O)C[C@H](NC(=O)Cn1c(-c2ccccc2)c(Cl)nc(NCc2ccc3c(n2)NCCC3)c1=O)c1cccc(F)c1` [(S)-3-(2-{5-Chloro-2-oxo-6-phenyl-3-[(5,6,7,8-tetrahydro-[1,8]naphthyridin-2-ylmethyl)-amino]-2H-pyrazin-1-yl}-acetylamino)-3-(3-fluoro-phenyl)-propionic acid]: > 3000 nM.
With `O=C(O)C[C@H](NC(=O)Cc1cccc(CCc2ccc3c(n2)NCCC3)c1)c1cccnc1` [3-(S)-Pyridin-3-yl-3-(2-{3-[2-(5,6,7,8-tetrahydro-[1,8]naphthyridin-2-yl)-ethyl]-phenyl}-acetylamino)-propionic acid], the IC50 was > 3000 nM.
On the same count and under the same terms, next, `O=C(O)C[C@H](NC(=O)Cn1c(C2CC2)c(Cl)nc(NCc2ccc3c(n2)NCCC3)c1=O)c1cnc2ccccc2c1` [(S)-3-(2-{5-Chloro-6-cyclopropyl-2-oxo-3-[(5,6,7,8-tetrahydro-[1,8]naphthyridin-2-ylmethyl)-amino]-2H-pyrazin-1-yl}-acetylamino)-3-quinolin-3-yl-propionic acid]: > 3000 nM.
Regarding `CCc1cnc(NCc2ccc3c(n2)NCCC3)c(=O)n1CC(=O)N[C@@H](CC(=O)O)c1cccc(F)c1` [(S)-3-(2-{6-Ethyl-2-oxo-3-[(5,6,7,8-tetrahydro-[1,8]naphthyridin-2-ylmethyl)-amino]-2H-pyrazin-1-yl}-acetylamino)-3-(3-fluoro-phenyl)-propionic acid], the IC50 is > 3000 nM.
Turning to `O=C(O)C[C@H](NC(=O)Cn1c(C2CC2)cnc(NCc2ccc3c(n2)NCCC3)c1=O)c1cccc(F)c1` [(S)-3-(2-{6-Cyclopropyl-2-oxo-3-[(5,6,7,8-tetrahydro-[1,8]naphthyridin-2-ylmethyl)-amino]-2H-pyrazin-1-yl}-acetylamino)-3-(3-fluoro-phenyl)-propionic acid], the IC50 was > 3000 nM.
For `O=C(O)C[C@H](NC(=O)Cn1c(C2CC2)c(Cl)nc(NCc2ccc3c(n2)NCCC3)c1=O)c1cccc(F)c1` [(S)-3-(2-{5-Chloro-6-cyclopropyl-2-oxo-3-[(5,6,7,8-tetrahydro-[1,8]naphthyridin-2-ylmethyl)-amino]-2H-pyrazin-1-yl}-acetylamino)-3-(3-fluoro-phenyl)-propionic acid], the IC50 is > 3000 nM.
Take `O=C(O)C[C@H](NC(=O)CNC(=O)CCCc1ccc2c(n1)NCCC2)c1cccnc1` [(S)-3-Pyridin-3-yl-3-[2-(4-5,6,7,8-tetrahydro-[1,8]naphthyridin-2-yl-butyrylamino)-acetylamino]-propionic acid]: the IC50 was > 3000 nM.
The same measure, in the same setting: for `O=C(O)C[C@H](NC(=O)Cn1c(C2CC2)cnc(NCc2ccc3c(n2)NCCC3)c1=O)c1cccnc1` [(S)-3-(2-{6-Cyclopropyl-2-oxo-3-[(5,6,7,8-tetrahydro-[1,8]naphthyridin-2-ylmethyl)-amino]-2H-pyrazin-1-yl}-acetylamino)-3-pyridin-3-yl-propionic acid] the value was > 3000 nM; for `CCc1c(Cl)nc(NCc2ccc3c(n2)NCCC3)c(=O)n1CC(=O)N[C@@H](CC(=O)O)c1cccc(F)c1` [(S)-3-(2-{5-Chloro-6-ethyl-2-oxo-3-[(5,6,7,8-tetrahydro-[1,8]naphthyridin-2-ylmethyl)-amino]-2H-pyrazin-1-yl}-acetylamino)-3-(3-fluoro-phenyl)-propionic acid], > 3000 nM; for `O=C(O)C[C@H](NC(=O)Cn1c(C2CC2)c(Cl)nc(NCc2ccc3c(n2)NCCC3)c1=O)c1ccc2c(c1)OCC2` [(S)-3-(2-{5-Chloro-6-cyclopropyl-2-oxo-3-[(5,6,7,8-tetrahydro-[1,8]naphthyridin-2-ylmethyl)-amino]-2H-pyrazin-1-yl}-acetylamino)-3-(2,3-dihydro-benzofuran-6-yl)-propionic acid], > 3000 nM.
Same read-out and setting: for `Cc1cnc(NCc2ccc3c(n2)NCCC3)c(=O)n1CC(=O)N[C@@H](CC(=O)O)c1cccc(F)c1` [(S)-3-(3-Fluoro-phenyl)-3-(2-{6-methyl-2-oxo-3-[(5,6,7,8-tetrahydro-[1,8]naphthyridin-2-ylmethyl)-amino]-2H-pyrazin-1-yl}-acetylamino)-propionic acid] the value was > 3000 nM; for `Cc1c(Cl)nc(NCc2ccc3c(n2)NCCC3)c(=O)n1CC(=O)N[C@@H](CC(=O)O)c1cccc(F)c1` [(S)-3-(2-{5-Chloro-6-methyl-2-oxo-3-[(5,6,7,8-tetrahydro-[1,8]naphthyridin-2-ylmethyl)-amino]-2H-pyrazin-1-yl}-acetylamino)-3-(3-fluoro-phenyl)-propionic acid], > 3000 nM; for `O=C(O)C[C@H](NC(=O)CN1CC[C@H](CCc2ccc3c(n2)NCCC3)C1=O)c1cccnc1` [3-(2-{(S)-2-Oxo-3-[2-(5,6,7,8-tetrahydro-[1,8]naphthyridin-2-yl)-ethyl]-pyrrolidin-1-yl}-acetylamino)-3-(S)-pyridin-3-yl-propionic acid], > 3000 nM.
On the same count and under the same terms, next, `O=C(O)C[C@H](NC(=O)Cn1c(C2CC2)cnc(NCc2ccc3c(n2)NCCC3)c1=O)c1ccc2c(c1)OCO2` [(S)-3-Benzo[1,3]dioxol-5-yl-3-(2-{6-cyclopropyl-2-oxo-3-[(5,6,7,8-tetrahydro-[1,8]naphthyridin-2-ylmethyl)-amino]-2H-pyrazin-1-yl}-acetylamino)-propionic acid]: > 3000 nM.

The next test is described as follows: Ability to bind to the alpha IIb beta-3 integrin expressed as inhibitory concentration against ADP-stimulated aggregation of human gel-filtered platelets.
As to `O=C(O)C[C@H](NC(=O)Cn1c(C2CC2)ccc(NCc2ccc3c(n2)NCCC3)c1=O)c1ccc2c(c1)OCC2` [(S)-3-(2-{6-Cyclopropyl-2-oxo-3-[(5,6,7,8-tetrahydro-[1,8]naphthyridin-2-ylmethyl)-amino]-2H-pyridin-1-yl}-acetylamino)-3-(2,3-dihydro-benzofuran-6-yl)-propionic acid], the IC50 was > 3000 nM.
Same read-out and setting: for `O=C(O)C[C@H](NC(=O)Cn1c(C2CC2)ccc(NCc2ccc3c(n2)NCCC3)c1=O)c1cccc(F)c1` [(S)-3-(2-{6-Cyclopropyl-2-oxo-3-[(5,6,7,8-tetrahydro-[1,8]naphthyridin-2-ylmethyl)-amino]-2H-pyridin-1-yl}-acetylamino)-3-(3-fluoro-phenyl)-propionic acid] the value was > 3000 nM.
For the molecule `Cc1ccc(NCc2ccc3c(n2)NCCC3)c(=O)n1CC(=O)N[C@@H](CC(=O)O)c1cccnc1` [3-(2-{6-Methyl-2-oxo-3-[(5,6,7,8-tetrahydro-[1,8]naphthyridin-2-ylmethyl)-amino]-2H-pyridin-1-yl}-acetylamino)-3-(S)-pyridin-3-yl-propionic acid], the IC50 was > 3000 nM.
With `O=C(O)C[C@H](NC(=O)Cn1cccc(NCc2ccc3c(n2)NCCC3)c1=O)c1cccnc1` [3-(2-{2-Oxo-3-[(5,6,7,8-tetrahydro-[1,8]naphthyridin-2-ylmethyl)-amino]-2H-pyridin-1-yl}-acetylamino)-3-(S)-pyridin-3-yl-propionic acid], the IC50 is > 3000 nM.
Still for that read-out and setting: next, `Cc1cnc(NCc2ccc3c(n2)NCCC3)c(=O)n1CC(=O)N[C@@H](CC(=O)O)c1cccnc1` [3-(2-{6-Methyl-2-oxo-3-[(5,6,7,8-tetrahydro-[1,8]naphthyridin-2-ylmethyl)-amino]-2H-pyrazin-1-yl}-acetylamino)-3-(S)-pyridin-3-yl-propionic acid]: > 3000 nM; `O=C(O)C[C@H](NC(=O)Cn1c(C2CC2)ccc(NCc2ccc3c(n2)NCCC3)c1=O)c1cccnc1` [3-(2-{6-Cyclopropyl-2-oxo-3-[(5,6,7,8-tetrahydro-[1,8]naphthyridin-2-ylmethyl)-amino]-2H-pyridin-1-yl}-acetylamino)-3-(S)-pyridin-3-yl-propionic acid]: > 3000 nM.
In the case of `O=C(O)C[C@H](NC(=O)CN1CCCC(CCc2ccc3c(n2)NCCC3)C1=O)c1cccnc1` (stereo partly drawn) [3-(2-{2-Oxo-3-[2-(5,6,7,8-tetrahydro-[1,8]naphthyridin-2-yl)-ethyl]-piperidin-1-yl}-acetylamino)-3-(S)-pyridin-3-yl-propionic acid], the IC50 is > 3000 nM.
The same measure, in the same setting: for `CCCc1ccc(NCc2ccc3c(n2)NCCC3)c(=O)n1CC(=O)N[C@@H](CC(=O)O)c1cccnc1` [3-(2-{2-Oxo-6-propyl-3-[(5,6,7,8-tetrahydro-[1,8]naphthyridin-2-ylmethyl)-amino]-2H-pyridin-1-yl}-acetylamino)-3-(S)-pyridin-3-yl-propionic acid] the value was > 3000 nM.
As for `C#C[C@H](CC(=O)O)NC(=O)Cn1c(C2CC2)ccc(NCc2ccc3c(n2)NCCC3)c1=O` [(S)-3-(2-{6-Cyclopropyl-2-oxo-3-[(5,6,7,8-tetrahydro-[1,8]naphthyridin-2-ylmethyl)-amino]-2H-pyridin-1-yl}-acetylamino)-pent-4-ynoic acid], the IC50 is > 3000 nM.

For the origin of these results see BindingDB's records for doi:10.1016/s0960-894x(03)00254-3 (Merck Research Laboratories, 2003).
